Data published in US11623924B2, “Modulators of alpha-1 antitrypsin” (Vertex Pharmaceuticals Incorporated, priority 2018, dated 2023).

Biological target: T1, NL20 human bronchial epithelial cells expressing human Z-AAT (Homo sapiens, UniProt P01009, E366K)
T1 construct: expressed in transfected cells; host or cells: NL20 human bronchial epithelial cells (NL20-SI line, doxycycline added)
Assay: AAT Function Assay (MSD Assay NL20-SI Cell Line)
Assay type: cell-based
Conditions: functionally active AAT (AAT-hNE complex) in supernatant of NL20 cells expressing human Z-AAT; read-out: NL20 Func. (EC50)
Experimental: A. AAT Function Assay (MSD Assay NL20-SI Cell Line)
Alpha-1 antitrypsin (AAT) is a SERPIN (serine protease inhibitor) that inactivates enzymes by binding to them covalently. This assay measured the amount of functionally active AAT in a sample in the presence of the disclosed compounds 1-215 by determining the ability of AAT to form an irreversible complex with human neutrophil Elastase (hNE). In practice, the sample (cell supernatant, blood sample, or other) was incubated with excess hNE to allow AAT-Elastase complex to be formed with all functional AAT in the sample. This complex was then captured to a microplate coated with an anti-AAT antibody. The complex captured to the plate was detected with a labeled anti-Elastase antibody and quantitated using a set of AAT standards spanning the concentration range present in the sample. Meso Scale Discovery (MSD) plate reader, Sulfo-tag labeling, and microplates were used to provide high sensitivity and wide dynamic range.
• 1. Harvest NL20 human bronchial epithelial cells expressing human Z-AAT in OptiMEM™ containing Pen/Strep (P/S) • 2. Seed at 16,000 cells/well in 30 μL (384 well plate) • 3. Centrifuge plates briefly up to speed (1200 rpm) and place into 37° C. incubator overnight Day 2: Compound Addition and Coating Plates with Capture Antibody Compound Addition: • 1. Dispense 40 μL of OptiMEM™ (P/S) with doxycycline (1:1000 stock=0.1 μM final) to each well of the compound plate using a multidrop Combi in hood • 2. Remove cell plate from incubator, flip/blot and take immediately to Bravo to transfer compounds • 3. Return plates to incubator overnight Coat MSD Plates • 1. Dilute capture antibody (Polyclonal Goat anti-AAT) to 5 μg/mL (1:200) in PBS (no BSA). • 2. Dispense 25 μL of diluted capture antibody into all wells of MSD 384-well High Bind plate using the Multidrop equipped with a standard cassette. • 3. Incubate overnight at 4° C. Prepare Blocker A (BSA) Solutions • 1. Prepare solution of 5% MSD Blocker A (BSA) following the manufacturer's instructions. • 2. Further dilute the 5% MSD Blocker A in PBS to 1% (Blocker A) as needed. Day 3: Run MSD Assay
Block Plates • 1. Wash plate 1× with 50 μL Wash buffer (PBS+0.5% Tween 20), and adds 35 μL 5% Block A buffer to block non-specific binding on washer dispenser • 2. Rotate plates on shaker for 1 hour at 600 rpm
Prepare M-AAT Standards • 1. Dilute M-AAT stock to 1.6 μg/mL in 1% BSA Blocker A (Stock in −70° C.); then prepare 12×1:2 serial dilutions in 1% Blocker A • 2. The top starting final concentration on MSD plate is 320 ng/mL. These dilutions correspond to a final concentration of 320, 160, 80, 40, 20, 10, 5, 2.5, 1.25, 0.625, 0.312, 0.156 ng/mL.
Dilution Plate • 1. Add 80 μL of 1% Assay buffer to all wells except columns 1/24 (standards) with Multidrop Combi • 2. Add diluted standards to columns 1 and 24 • 3. Centrifuge dilution plates 1200 rpm briefly
Cell Plate • 1. Aspirate columns which will have the standards from the cell plates in the hood using 16-pin aspirator
Prepare Human Neutrophil Elastase (hNE) • 1. Prepare 1 μg/mL Human Neutrophil Elastase by diluting in 1% Blocker A. • a. Small 100 μg vial—add 1 mL PBS (100 μg/mL) • i. This can then be diluted 1:100 in 1% Assay Buffer for a final 1 μg/mL concentration
MSD—Add hNE (20 μL/well) • 1. After the MSD plate has blocked for at least 1 hour, wash plate 1× with 50 μL Wash buffer (PBS+0.5% Tween 20) and then add 20 μL hNE to each well
Bravo—Cell Plate—Dilution Plate—MSD Plate
Using the Bravo aspirate 10 μL from the cell plate, transfer to the dilution plate (9-fold dilution)
• 1. Mix 25 μL 3×, then aspirate 5 μL, transfer to MSD plate (5-fold dilution) • 2. Mix 10 μL 3×. Total dilution is 45 fold. • 3. Shake plates at 600 rpm for 1.5 hours
Add Functional detection hNE antibody • 1. Wash plate 1× with wash buffer • 2. […]

T1 sequence (P01009 25-418 E366K): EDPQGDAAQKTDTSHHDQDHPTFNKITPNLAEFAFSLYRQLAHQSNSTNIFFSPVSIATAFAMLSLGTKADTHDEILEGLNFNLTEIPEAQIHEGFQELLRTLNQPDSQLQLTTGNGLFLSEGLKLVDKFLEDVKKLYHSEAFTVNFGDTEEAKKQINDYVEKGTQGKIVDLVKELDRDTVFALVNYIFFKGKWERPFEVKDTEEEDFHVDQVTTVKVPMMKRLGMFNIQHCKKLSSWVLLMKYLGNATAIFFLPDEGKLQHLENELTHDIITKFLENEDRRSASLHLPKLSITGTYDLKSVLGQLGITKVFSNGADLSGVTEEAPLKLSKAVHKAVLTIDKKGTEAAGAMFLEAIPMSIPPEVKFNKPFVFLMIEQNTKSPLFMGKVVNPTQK

EC50 [µM]	Structure (SMILES)
> 3	CCCn1c(C2CCOCC2)c(C2CC3(CC(C(=O)O)C3)C2)c2cc3[nH]ncc3cc21 (stereo not drawn) [Compound 196, 6-(5-propyl-6-tetrahydropyran-4-yl-1H-pyrrolo[2,3-f]indazol-7-yl)spiro[3.3]heptane-2-carboxylic Acid]
1.16 to 3	COCC(C)(C)c1c(CCCNC(N)=O)c2cc3[nH]ncc3cc2n1-c1ccc(F)cc1 [Compound 180]
> 3	CC(C)c1c(S(C)(=O)=O)c2cc3[nH]ncc3cc2n1-c1ccc(F)cc1 [Compound 30, 5-(4-fluorophenyl)-6-isopropyl-7-methylsulfonyl-1H-pyrrolo[2,3-f]indazole]
> 3	CC(C)c1c(CCC(=O)OC2O[C@H](C(=O)O)[C@@H](O)[C@H](O)[C@H]2O)c2cc3[nH]ncc3cc2n1-c1ccc(F)cc1 (stereo in doubt) [Compound 173, (2S,3S,4S,5R)-6-[3-[5-(4-fluorophenyl)-6-isopropyl-1H-pyrrolo[2,3-f]indazol-7-yl]propanoyloxy]-3,4,5-trihydroxy-tetrahydropyran-2-carboxylic Acid]
< 1.16	Cc1cc(-n2c(C(C)C)c(C3CC4(CC(C(=O)O)C4)C3)c3cc4[nH]ncc4cc32)ccc1F (single isomer, unassigned) [Compound 25]
> 3	Cc1cc(-n2c(C(C)C)c(S(C)(=O)=O)c3cc4[nH]nnc4cc32)ccc1F [Compound 199, 5-(4-fluoro-3-methyl-phenyl)-6-isopropyl-7-methylsulfonyl-1H-pyrrolo[2,3-f]benzotriazole]
1.16 to 3	Cc1cc(-n2c(C(C)C)c(C3CC4(CC(C(=O)O)C4)C3)c3cc4[nH]nc(C)c4cc32)ccc1F (racemic) [Compound 56, 6-[5-(4-fluoro-3-methyl-phenyl)-6-isopropyl-3-methyl-1H-pyrrolo[2,3-f]indazol-7-yl]spiro[3.3]heptane-2-carboxylic acid]
< 1.16	Cc1cc(-n2c(C3CCOCC3)c(CC3CC(C(=O)O)C3)c3cc4[nH]ncc4cc32)ccc1F (mixture of isomers) [Compound 96]
> 3	CC(C)(CC#N)c1c(CCC(=O)O)c2cc3[nH]ncc3cc2n1-c1ccc(F)cc1 [Compound 190, 3-[6-(2-cyano-1,1-dimethyl-ethyl)-5-(4-fluorophenyl)-1H-pyrrolo[2,3-f]indazol-7-yl]propanoic Acid]
1.16 to 3	CC(C)c1c(CCC(=O)O)c2cc3[nH]ncc3cc2n1-c1ccc(F)c(F)c1 [Compound 38, 3-[5-(3,4-difluorophenyl)-6-isopropyl-1H-pyrrolo[2,3-f]indazol-7-yl]propanoic Acid]
< 1.16	Fc1ccc(-n2c(C3CCOCC3)c(CC3CCOCC3)c3cc4[nH]ncc4cc32)cc1 [Compound 145]
> 3	CC1(C(=O)O)CC(c2c(C3CCOCC3)n(-c3ccc(F)c(F)c3)c3cc4cn[nH]c4cc23)C1 (single isomer, unassigned) [Compound 69]
> 3	C[C@]1(C(=O)O)C[C@@H](c2c(C3CCOCC3)n(-c3ccc(F)cc3)c3cc4cn[nH]c4cc32)C1 (single isomer, unassigned) [Compound 114]
< 1.16	O=C(O)C1CC2(C1)CC(c1c(C3CCOCC3)n(-c3ccc(F)c(F)c3)c3cc4c(Cl)n[nH]c4cc13)C2 (stereo not drawn) [Compound 130, 6-[3-chloro-5-(3,4-difluorophenyl)-6-tetrahydropyran-4-yl-1H-pyrrolo[2,3-f]indazol-7-yl]spiro[3.3]heptane-2-carboxylic Acid]
< 1.16	N#Cc1c2[nH]ncc2cc2c1c(C1CC3(CC(C(=O)O)C3)C1)c(C1CCOCC1)n2-c1ccc(F)c(F)c1 (stereo not drawn) [Compound 133, 6-[8-cyano-5-(3,4-difluorophenyl)-6-tetrahydropyran-4-yl-1H-pyrrolo[2,3-f]indazol-7-yl]spiro[3.3]heptane-2-carboxylic acid]
< 1.16	O=C(O)c1ccc(C#Cc2c(C3CCOCC3)n(-c3ccc(F)cc3)c3cc4cn[nH]c4cc23)cc1 [Compound 215, 4-[2-[5-(4-fluorophenyl)-6-tetrahydropyran-4-yl-1H-pyrrolo[2,3-f]indazol-7-yl]ethynyl]benzoic Acid]
< 1.16	Cc1cc(-n2c(C(C)C)c(C3CC4(CC(C(=O)O)C4)C3)c3cc4[nH]ncc4cc32)ccc1F (racemic) [Compound 24]
> 3	CC(C)c1c(CCC(=O)O)c2cc3[nH]ncc3cc2n1-c1cccc(C(F)F)c1 [Compound 37, 3-[5-[3-(difluoromethyl)phenyl]-6-isopropyl-1H-pyrrolo[2,3-f]indazol-7-yl]propanoic Acid]
> 3	CC(C)c1c(CCC(=O)N2C[C@@H](O)[C@H](O)C2)c2cc3[nH]ncc3cc2n1-c1ccc(F)cc1 [Compound 212, 1-[(3R,4R)-3,4-dihydroxypyrrolidin-1-yl]-3-[5-(4-fluorophenyl)-6-isopropyl-1H-pyrrolo[2,3-f]indazol-7-yl]propan-1-one]
1.16 to 3	O=C(O)[C@H]1C[C@@H](Cc2c(C3CCOCC3)n(-c3ccc(F)c(F)c3)c3cc4cn[nH]c4cc23)C1 (single isomer, unassigned) [Compound 72]
< 1.16	O=C(O)[C@H]1CC[C@H](c2c(C3CCOCC3)n(-c3ccc(F)cc3)c3cc4cn[nH]c4cc32)CC1 [Compound 120]
> 3	O=C(O)CCc1c(C2CCOCC2)n(-c2ccc(F)cc2)c2cc3cn[nH]c3cc12 [Compound 107]
> 3	N#Cc1n[nH]c2cc3c(C4CC5(CC(C(=O)O)C5)C4)c(C4CCOCC4)n(-c4ccc(F)c(F)c4)c3cc12 (stereo not drawn) [Compound 186, 6-[3-cyano-5-(3,4-difluorophenyl)-6-tetrahydropyran-4-yl-1H-pyrrolo[2,3-f]indazol-7-yl]spiro[3.3]heptane-2-carboxylic Acid]
1.16 to 3	O=C(OCc1ccccc1)N1CCC(Cc2c(C3CCOCC3)n(-c3ccc(F)cc3)c3cc4cn[nH]c4cc23)CC1 [Compound 152, Benzyl 4-[[5-(4-fluorophenyl)-6-tetrahydropyran-4-yl-1H-pyrrolo[2,3-f]indazol-7-yl]methyl]piperidine-1-carboxylate]
> 3	Cc1cc(-n2c(C(C)C)cc3c(F)c4[nH]ncc4cc32)ccc1F [Compound 50, 8-fluoro-5-(4-fluoro-3-methyl-phenyl)-6-isopropyl-1H-pyrrolo[2,3-f]indazole]
1.16 to 3	COCC(C)(C)c1c(CC2CC(C(=O)O)C2)c2cc3[nH]ncc3cc2n1-c1ccc(F)cc1 (stereo not drawn) [Compound 175]
< 1.16	Cc1cc(-n2c(C(C)C)c(C(C)CC(=O)O)c3cc4[nH]ncc4cc32)ccc1F (single isomer, unassigned) [Compound 27]
1.16 to 3	Cc1cc(-n2c(C3CCOCC3)c(CC3(C(=O)O)CC3)c3cc4[nH]ncc4cc32)ccc1F [Compound 87]
> 3	CC(C)c1c(CCC(=O)O)c2nc3[nH]ncc3cc2n1-c1ccc(F)cc1 [Compound 203, 3-[10-(4-fluorophenyl)-11-isopropyl-2,4,5,10-tetrazatricyclo[7.3.0.03,7]dodeca-1,3(7),5,8,11-pentaen-12-yl]propanoic Acid]
1.16 to 3	Cc1cc(-n2c(C3CCOCC3)c([C@H]3C[C@@H](CC(=O)O)C3)c3cc4[nH]ncc4cc32)ccc1F (single isomer, unassigned) [Compound 95]
